Results from patent publication US20140079836A1, “METHODS AND COMPOSITIONS FOR ALTERING HEALTH, WELLBEING, AND LIFESPAN” (LifeSpan Extension, LLC, priority 2008, published 2014).

Test system: TERT, TPP1, TERF1, TERF2, TINF2, POT1
Assay: qPCR primer assays of telomere complex genes in skin fibroblasts AG07999
Assay type: cell-based, human
Settings: 24 hours; 1 uM idebenone, 0.001% coffee cherry; FIG. 7
Procedure: Cell cultures: A human skin fibroblast cell culture was obtained through the Coriell Cell Repository from the National Institute on Aging Cell Repository. The culture, AG07999, was established from a biopsy of a person. Culture media: Cells were grown in Minimal Essential Medium supplemented with 10% fetal bovine serum, 2 mM L-glutamine, 2 mM Glutamax I. […] All cultures were incubated at 37° C. with 5% CO2 in a humidified chamber. Seeding of cells: […] Experimental phase: […] On Day 5 after 24 hours of exposure to test conditions, the cells were isolated and the RNA isolated using the RT^2q PCR-grade RNA isolation kit (Superarray Bioscience Corporation). […] The RNA was quantified and examined for purity using the 260/280 nm read method in a μQuant spectrophotometer before use in the array. Performance of the qPCR Primer Assays: […] The assay was performed in compliance with manufacturer's guidelines and by recommended manufacturer's protocol as can be found on the World Wide Web at superarray.com/Manual/realtimePCR.pdf. […] Any values out of range of the threshold cycles or inconsistent within the assay were discarded from analysis. qPCR Primer Assay results: The results from assays were determined using the delta CT method, which uses comparisons of control genes and threshold cycles of genes of interest to generate relative expression values (this process is handled by the GeneX package).

Structure (SMILES): COC1=C(OC)C(=O)C(CCCCCCCCCCO)=C(C)C1=O [Idebenone, 6-(10-hydroxydecyl)-2,3-dimethoxy-5-methyl-1,4-benzoquin-one]
- TERF1 expression level: effected
- TERF2 expression level: effected
